Patent US20240352419A1, “METHODS AND COMPOSITIONS FOR DIFFERENTIATION OF PLURIPOTENT STEM CELLS AND DERIVED HEMATOPOIETIC LINEAGE CELLS” (NUWACELL BIOTECHNOLOGIES CO., LTD., priority 2022, published 2024)

Legend:
Assay type in all cases: cell-based
K562 cells = assay: Cytotoxicity of Stage 3 iNK cells by CFSE/7AAD assay; settings: added to Stage 3 medium (IL-10 20 ng/mL, IL-18 50 ng/mL), E:T 3:1, 4 hr, FIG. 13A
Protocol: hiPSCs were prepared as described in CN108373998B. On Day −1, Embryoid body (EB) formation (Stage 1-1) was carried out by placing individualized hiPSCs in E8 medium containing 10 μM Blebbistatin in T25 flasks on a bellydancer and culture overnight. On Day 0, lateral mesoderm differentiation (Stage 1-2) was initiated by changing the medium to a Stage 1-2 differentiation medium comprising IF-4 basal medium and supplemented with BMP4 (25 ng/mL), VEGF (15 ng/ml), bFGF (0.5 ng/mL) and CHIR99021 (4 μM) for 2 days. On Day 2, lateral mesoderm differentiation (Stage 1-3) continued for 1 day in a Stage 1-3 differentiation medium comprising IF-4 basal medium and supplemented with BMP4 (25 ng/mL), VEGF (50 ng/mL) and bFGF (0.5 ng/mL) and CHIR99021 (1 μM). On Day 3, HE specification (Stage 1-4) was initiated by adding a Stage 1-4 differentiation medium comprising IF-4 basal medium and supplemented with VEGF (15 ng/ml), bFGF (5 ng/ml), XAV939 (5 μM) for 1 day. […] On Day 11 of co-culture, iNK cells were collected and stained with CD56-PE antibody (BD, #555516), the percentage of CD56+ cells was analyzed by flow cytometry. The cytotoxicity of Stage 3 iNK cells towards K562 cells was detected by CFSE/7AAD assay after 4 hr co-culture at E:T of 3:1.

PBNK cells = assay: Expansion of PBNK cells from PBMCs (expansion fold, CD56+CD3- percentage by flow cytometry); settings: effect of heparin sodium concentration (0-50 μg/mL) in NKSFM
Protocol: The effect of the concentration of nicotinamide (NAM) in an exemplary basal medium on NK cell expansion was evaluated. The above basal medium comprised the following components: IMDM (Sigma):RPMI1640 (Gibco) (50%: 50%); about 1.3 ng/ml of Cupric sulfate, about 3 μM of Ferric sulfate, about 0.432 μg/mL of Zinc sulfate, about 1˜50 ng/ml of Na Selenite, about 110 μg/mL of Sodium pyruvate, 0.1˜20 μg/mL of Insulin, 1˜200 μg/mL of Transferrin, about 1% (v/v) of GlutaMAX-1, 0.1˜20 mg/mL of HSA, 1˜400 μM of MTG, about 80 μg/mL of Ascorbic acid and indicated concentration of NAM. Peripheral blood mononuclear cells (PBMCs) were isolated by density gradient centrifugation using Ficoll-Paque. On Day 0, PBMCs were plated at 1×10^6 cells/mL in a 48-well-plate in the basal medium with NAM (either 0, 1, 2, 2.5, 3, 3.5, 4, or 5 mM) and stimulated with the following reagents for 3 days: immobilized CD16 antibody (Biolegend, 302014) (135 ng/cm^2), IL-2 (700 IU/mL), IL-15 (10 ng/ml) and OK432 (0.01 KE/mL). On day 3, cells were re-suspended in the above basal medium supplemented with IL-2 (700 IU/mL) and IL-15 (10 ng/mL). Fresh medium was added every other day to maintain cell density below 2×10^6 cells/mL. Cells were collect on Day 14 and stained with CD56-PE and CD3-PerCP-Cy5.5 antibodies, the percentage of CD56^+CD3^− NK cells was analyzed by flow cytometry.
(§1) The effect of heparin sodium concentration in an exemplary NKSFM on NK cell expansion was also evaluated. NKSFM comprised the following components: IMDM (Sigma):DMEM/F12 (Gibco) (50%: 50%); about 20 μM of Ethanolamine, about 1˜50 ng/ml of Na Selenite, about 110 μg/mL of Sodium pyruvate, 0.1˜20 μg/mL of Insulin, 1˜200 μg/mL of Transferrin, about 1% (v/v) of GlutaMAX-1, 0.1˜20 mg/mL of Human serum albumin, 1˜400 μM of MTG, about 80 μg/mL of Ascorbic acid, about 1˜5 mM of NAM, 4% (v/v) of PLT, and indicated concentration of heparin sodium. PBMCs were isolated by density gradient centrifugation using Ficoll-Paque. On Day 0, PBMCs were plated at 1×10^6 cells/mL in a 48-well-plate in NKSFM with heparin sodium (0, 0.5, 1, 3, 10, 30, or 50 μg/mL) and stimulated with the following reagents for 3 days: immobilized CD16 antibody (Biolegend, 302014) (135 ng/cm^2), OK432 (0.01 KE/mL), NeoIL-2 (50 ng/ml), IL-12 (10 ng/mL), IL-18 (50 ng/mL). […] Cells were collect on Day 13 and stained with CD56-PE and CD3-PerCP-Cy5.5 antibodies, the percentage of CD56^+CD3^− NK cells was analyzed by flow cytometry. The specific lysis of K562 tumor cells by NK cells were assessed by CFSE/7-AAD cytotoxicity assay. […] After incubation for 4 hours, cells were stained with 7-AAD (Live/dead staining) and analyzed with flow cytometry.
The effect of PLT percentage (v/v) in an exemplary NKSFM on NK cell expansion was evaluated. […]

K562 tumor cells = assay: CFSE/7-AAD cytotoxicity assay of expanded NK cells; settings: effect of heparin sodium concentration in NKSFM, E:T 3:1, 4 hours, FIG. 3C
Protocol: as §1, with “Ficoll-Paque.” for “Ficoll-Paque. On Day 0, PBMCs were plated at 1×10^6 cells/mL in a 48-well-plate in NKSFM with heparin sodium (0, 0.5, 1, 3, 10, 30, or 50 μg/mL) and stimulated with the following reagents for 3 days: immobilized CD16 antibody (Biolegend, 302014) (135 ng/cm^2), OK432 (0.01 KE/mL), NeoIL-2 (50 ng/ml), IL-12 (10 ng/mL), IL-18 (50 ng/mL).”
The effect of PLT percentage (v/v) in an exemplary NKSFM on NK cell expansion was evaluated. […] Cells were collect on Day 14 and stained with CD56-PE and CD3-PerCP-Cy5.5 antibodies, the percentage of CD56^+CD3^− NK cells was analyzed by flow cytometry. The specific lysis of K562 tumor cells by NK cells were assessed by CFSE/7-AAD cytotoxicity assay. […]

| Substance | cytotoxicity of iNK cells (K562 cells) | NK cell expansion fold (PBNK cells; Day 13, FIG. 3A) | percentage of CD56+CD3− NK cells (PBNK cells; Day 13, FIG. 3B) | specific lysis of K562 tumor cells (K562 tumor cells) |
| --- | --- | --- | --- | --- |
| IL-10: interleukin added to Stage 3 expansion and maturation medium | significantly improve | – | – | – |
| heparin sodium | – | significantly influences | minimal effect | minimal effect |
